Assay results as given in patent EP4748840A1, “IMIDAZO[1,2-A]PYRIDINE TYPE IRAK DEGRADATION AGENT AND USE THEREOF” (TAINUORUI (TIANJIN) BIOTECHNOLOGY CO., LTD, priority 2023, dated 2025).

molecular target: T1, IRAK4 (Homo sapiens, UniProt Q9NWZ3); assay: HiBiT-based intracellular degradation assay of THP1-HIBiT-IRAK4 cells; assay type: cell-based; settings: half-maximal degradation concentration of IRAK4 protein, 24 h incubation
T1 construct: expressed in transfected cells; host or cells: THP1 (THP1-HIBiT-IRAK4 engineered line)
T1 sequence (Q9NWZ3 1-460): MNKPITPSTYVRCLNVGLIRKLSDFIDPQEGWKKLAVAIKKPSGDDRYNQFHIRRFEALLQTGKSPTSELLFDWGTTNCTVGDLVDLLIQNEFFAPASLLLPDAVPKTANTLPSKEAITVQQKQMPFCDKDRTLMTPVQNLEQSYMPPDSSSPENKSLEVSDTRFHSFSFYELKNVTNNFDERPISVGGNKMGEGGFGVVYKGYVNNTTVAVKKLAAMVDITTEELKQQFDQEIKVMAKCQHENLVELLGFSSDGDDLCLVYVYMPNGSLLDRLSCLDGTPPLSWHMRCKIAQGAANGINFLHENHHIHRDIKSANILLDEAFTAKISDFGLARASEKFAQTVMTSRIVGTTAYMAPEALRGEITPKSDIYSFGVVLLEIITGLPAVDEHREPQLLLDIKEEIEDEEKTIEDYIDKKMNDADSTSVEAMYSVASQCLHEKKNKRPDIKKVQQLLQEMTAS
Experimental: HiBiT-based intracellular degradation assay of THP1-HIBiT-IRAK4 cells
THP1-HIBiT-IRAK4 cells were cultured in RPMI 1640 medium supplemented with 10% fetal bovine serum (FBS) and 1% penicillin-streptomycin (PS) (37°C and 5% CO2). The THP1-HIBiT-IRAK4 cells were inoculated in a 384-well plate at 5000 cells/40 µL/well. Compound solutions with different concentrations were added at 40 nL/well and incubated for 24 h at 37°C in 5% CO2. HiBiT lysis detection reagents were added to the wells, the plate was incubated for 30 min at room temperature, and luminescence values were read on Envision. [formula]
The DC50 (half-maximal degradation concentration) of each compound was obtained using XLfit software and the following nonlinear fitting equation: Y = bottom + (top−bottom)/(1+10^(∧)((LogDC50−X)×Hillslope)). [formula]
X denotes a log value of the compound concentration.
Y denotes the degradation rate.
Table 1 lists the results of DC50 values of IRAK4 protein degradation. […]

Point of comparison: CC(C)(O)c1cc2nc(C3CCN(CCN4CCN(c5ccc6c(c5)C(=O)N(C5CCC(=O)NC5=O)C6)CC4)CC3)cn2cc1NC(=O)c1cccc(C(F)(F)F)n1 (centres unmarked) [Example 13, N-(2-(1-(2-(4-(2-(2,6-dioxopiperidin-3-yl)-3-oxoisoindolin-5-yl)piperazin-1-yl)ethyl)piperidin-4-yl)-7-(2-hydroxypropan-2-yl)imidazo[1,2-a]pyridin-6-yl)-6-(trifluoromethyl)pyridine-2-carboxamide], DC50 0.64 nM. Against it:
- CC(C)(O)c1cc2nc(C3CCN(CCOCCNc4cccc5c4C(=O)N(C4CCC(=O)NC4=O)C5=O)CC3)cn2cc1NC(=O)c1cccc(C(F)(F)F)n1 (centres unmarked) [Comparative Example 1, N-(2-(1-(2-(2-((2-(2,6-dioxopiperidin-3-yl)-1,3-dioxoisoindolin-4-yl)amino)ethoxy)ethyl)piperidin-4-yl)-7-(2-hydroxypropan-2-yl)imidazo[1,2-a]pyridin-6-yl)-6-(trifluoromethyl)pyridine-2-carboxamide, reference compound] — higher, > 10000 nM
- CC(C)(O)c1cc2nc(C3CCN(CCCCC#Cc4cccc5c4CN(C4CCC(=O)NC4=O)C5=O)CC3)cn2cc1NC(=O)c1cccc(C(F)(F)F)n1 (centres unmarked) [Comparative Example 2, N-(2-(1-(6-(2-(2,6-dioxopiperidin-3-yl)-1-oxoisoindolin-4-yl)hex-5-yn-1-yl)piperidin-4-yl)-7-(2-hydroxypropan-2-yl)imidazo[1,2-a]pyridin-6-yl)-6-(trifluoromethyl)pyridine-2-carboxamide, reference compound] — higher, > 10000 nM
- CC(C)(O)c1cc2nc(C3CCN(CC(=O)N4CCN(c5ccc6c(c5)C(=O)N(C5CCC(=O)NC5=O)C6=O)CC4)CC3)cn2cc1NC(=O)c1cccc(C(F)(F)F)n1 (centres unmarked) [Example 2, N-(2-(1-(2-(4-(2-(2,6-dioxopiperidin-3-yl)-1,3-dioxoisoindolin-5-yl)piperazin-1-yl)-2-oxoethyl)piperidin-4-yl)-7-(2-hydroxypropan-2-yl)imidazo[1,2-a]pyridin-6-yl)-6-(trifluoromethyl) pyridine-2-carboxamide] — 7-fold higher, 4.46 nM
- CC(C)(O)c1cc2nc(C3CCN(CCC(=O)N4CCN(c5ccc6c(c5)C(=O)N(C5CCC(=O)NC5=O)C6=O)CC4)CC3)cn2cc1NC(=O)c1cccc(C(F)(F)F)n1 (centres unmarked) [Example 3, N-(2-(1-(3-(4-(2-(2,6-dioxopiperidin-3-yl)-1,3-dioxoisoindolin-5-yl)piperazin-1-yl)-3-oxopropyl)piperidin-4-yl)-7-(2-hydroxypropan-2-yl)imidazo[1,2-a]pyridin-6-yl)-6-(trifluoromethyl)pyridine-2-carboxamide] — 22-fold higher, 13.9 nM
- CC(C)(O)c1cc2nc(C3CCN(CCCC(=O)N4CCN(c5ccc6c(c5)C(=O)N(C5CCC(=O)NC5=O)C6=O)CC4)CC3)cn2cc1NC(=O)c1cccc(C(F)(F)F)n1 (centres unmarked) [Example 4, N-(2-(1-(4-(4-(2-(2,6-dioxopiperidin-3-yl)-1,3-dioxoisoindolin-5-yl)piperazin-1-yl)-4-oxobutyl)piperidin-4-yl)-7-(2-hydroxypropan-2-yl)imidazo[1,2-a]pyridin-6-yl)-6-(trifluoromethyl)pyridine-2-carboxamide] — 7.9-fold higher, 5.05 nM
- CC(C)(O)c1cc2nc(C3CCN(CC(=O)N4CCC5(CC4)CN(c4ccc6c(c4)C(=O)N(C4CCC(=O)NC4=O)C6=O)C5)CC3)cn2cc1NC(=O)c1cccc(C(F)(F)F)n1 (centres unmarked) [Example 5, N-(2-(1-(2-(2-(2-(2,6-dioxopiperidin-3-yl)-1,3-dioxoisoindolin-5-yl)-2,7-diazaspiro[3.5]nonan-7-yl)-2-oxoethyl)piperidin-4-yl)-7-(2-hydroxypropan-2-yl)imidazo[1,2-a]pyridin-6-yl)-6-(trifluoromethyl)pyridine-2-carboxamide] — 5.8-fold higher, 3.69 nM
- CC(C)(O)c1cc2nc(C3CCN(CC(=O)N4CC5(CCN(c6ccc7c(c6)C(=O)N(C6CCC(=O)NC6=O)C7=O)CC5)C4)CC3)cn2cc1NC(=O)c1cccc(C(F)(F)F)n1 (centres unmarked) [Example 6, N-(2-(1-(2-(7-(2-(2,6-dioxopiperidin-3-yl)-1,3-dioxoisoindolin-5-yl)-2,7-diazaspiro[3.5]nonan-2-yl)-2-oxoethyl)piperidin-4-yl)-7-(2-hydroxypropan-2-yl)imidazo[1,2-a]pyridin-6-yl)-6-(trifluoromethyl)pyridine-2-carboxamide] — 12-fold higher, 7.83 nM
- CC(C)(O)c1cc2nc(C3CCN(CC4CCN(c5ccc6c(c5)CN(C5CCC(=O)NC5=O)C6=O)CC4)CC3)cn2cc1NC(=O)c1cccc(C(F)(F)F)n1 (centres unmarked) [Example 7, N-(2-(1-((1-(2-(2,6-dioxopiperidin-3-yl)-1-oxoisoindolin-5-yl)piperidin-4-yl)methyl)piperidin-4-yl)-7-(2-hydroxypropan-2-yl)imidazo[1,2-a]pyridin-6-yl)-6-(trifluoromethyl)pyridine-2-carboxamide] — 2.1-fold higher, 1.36 nM
- COc1cc2nc(C3CCN(CC4CCN(c5ccc6c(c5)C(=O)N(C5CCC(=O)NC5=O)C6=O)CC4)CC3)cn2cc1NC(=O)c1cccc(C(F)(F)F)n1 (centres unmarked) [Example 8, N-(2-(1-((1-(2-(2,6-dioxopiperidin-3-yl)-1,3-dioxoisoindolin-5-yl)piperidin-4-yl)methyl)piperidin-4-yl)-7-methoxyimidazo[1,2-a]pyridin-6-yl)-6-(trifluoromethyl)pyridine-2-carboxamide] — 25-fold higher, 16.3 nM
- CC(C)(O)c1cc2nc(C3CCN(CCN4CCN(c5ccc6c(c5)C(=O)N(C5CCC(=O)NC5=O)C6=O)CC4)CC3)cn2cc1NC(=O)c1cccc(C(F)(F)F)n1 (centres unmarked) [Example 9, N-(2-(1-(2-(4-(2-(2,6-dioxopiperidin-3-yl)-1,3-dioxoisoindolin-5-yl)piperazin-1-yl)ethyl)piperidin-4-yl)-7-(2-hydroxypropan-2-yl)imidazo[1,2-a]pyridin-6-yl)-6-(trifluoromethyl)pyridine-2-carboxamide] — within 1.5-fold, 0.87 nM
- CC(C)(O)c1cc2nc(C3CCN(CCN4CCN(c5ccc6c(c5)CN(C5CCC(=O)NC5=O)C6=O)CC4)CC3)cn2cc1NC(=O)c1cccc(C(F)(F)F)n1 (centres unmarked) [Example 10, N-(2-(1-(2-(4-(2-(2,6-dioxopiperidin-3-yl)-1-oxoisoindolin-5-yl)piperazin-1-yl)ethyl)piperidin-4-yl)-7-(2-hydroxypropan-2-yl)imidazo[1,2-a]pyridin-6-yl)-6-(trifluoromethyl)pyridine-2-carboxamide] — within 1.5-fold, 0.51 nM
- COc1cc2nc(C3CCN(CCN4CCN(c5ccc6c(c5)C(=O)N(C5CCC(=O)NC5=O)C6=O)CC4)CC3)cn2cc1NC(=O)c1cccc(C(F)(F)F)n1 (centres unmarked) [Example 11, N-(2-(1-(2-(4-(2-(2,6-dioxopiperidin-3-yl)-1,3-dioxoisoindolin-5-yl)piperazin-1-yl)ethyl)piperidin-4-yl)-7-methoxyimidazo[1,2-a]pyridin-6-yl)-6-(trifluoromethyl)pyridine-2-carboxamide] — 3.5-fold higher, 2.23 nM
- COc1cc2nc(C3CCN(CCN4CCN(c5ccc6c(c5)CN(C5CCC(=O)NC5=O)C6=O)CC4)CC3)cn2cc1NC(=O)c1cccc(C(F)(F)F)n1 (centres unmarked) [Example 12, N-(2-(1-(2-(4-(2-(2,6-dioxopiperidin-3-yl)-1-oxoisoindolin-5-yl)piperazin-1-yl)ethyl)piperidin-4-yl)-7-methoxyimidazo[1,2-a]pyridin-6-yl)-6-(trifluoromethyl)pyridine-2-carboxamide] — 1.6-fold higher, 1.05 nM
- COc1cc2nc(C3CCN(CCN4CCN(c5ccc6c(c5)C(=O)N(C5CCC(=O)NC5=O)C6)CC4)CC3)cn2cc1NC(=O)c1cccc(C(F)(F)F)n1 (centres unmarked) [Example 14, N-(2-(1-(2-(4-(2-(2,6-dioxopiperidin-3-yl)-3-oxoisoindolin-5-yl)piperazin-1-yl)ethyl)piperidin-4-yl)-7-methoxyimidazo[1,2-a]pyridin-6-yl)-6-(trifluoromethyl)pyridine-2-carboxamide] — 2.1-fold higher, 1.33 nM
- CC(C)(O)c1cc2nc(C3CCN(CCN4CCC5(CC4)CN(c4ccc6c(c4)C(=O)N(C4CCC(=O)NC4=O)C6=O)C5)CC3)cn2cc1NC(=O)c1cccc(C(F)(F)F)n1 (centres unmarked) [Example 16, N-(2-(1-(2-(2-(2-(2,6-dioxopiperidin-3-yl)-1,3-dioxoisoindolin-5-yl)-2,7-diazaspiro[3.5]nonan-7-yl)ethyl)piperidin-4-yl)-7-(2-hydroxypropan-2-yl)imidazo[1,2-a]pyridin-6-yl)-6-(trifluoromethyl)pyridine-2-carboxamide] — 5.2-fold higher, 3.33 nM
- CC(C)(O)c1cc2nc(C3CCN(CCN4CC5(CCN(c6ccc7c(c6)C(=O)N(C6CCC(=O)NC6=O)C7=O)CC5)C4)CC3)cn2cc1NC(=O)c1cccc(C(F)(F)F)n1 (centres unmarked) [Example 17, N-(2-(1-(2-(7-(2-(2,6-dioxopiperidin-3-yl)-1,3-dioxoisoindolin-5-yl)-2,7-diazaspiro[3.5]nonan-2-yl)ethyl)piperidin-4-yl)-7-(2-hydroxypropan-2-yl)imidazo[1,2-a]pyridin-6-yl)-6-(trifluoromethyl)pyridine-2-carboxamide] — 7.6-fold higher, 4.86 nM
